Several values for one entry are separate records, joined by “and”; a condition that tells them apart may be missing. Identical values can stand only once. Like-named read-outs stand apart in the source and are kept apart here. One block for each compound: values may come before it. No end group written: not given here.
Key:
EphB4 [1] = target: T1, EphB4 (Homo sapiens, UniProt P54760); assay: Inhibition of ephrin-B2 AP binding to immobilized EphB4 ectodomain
T1 construct: panned on the ectodomains of EphB1, EphB2, or EphB4 fused to human Fc
T1 sequence (P54760 16-539 limits assumed): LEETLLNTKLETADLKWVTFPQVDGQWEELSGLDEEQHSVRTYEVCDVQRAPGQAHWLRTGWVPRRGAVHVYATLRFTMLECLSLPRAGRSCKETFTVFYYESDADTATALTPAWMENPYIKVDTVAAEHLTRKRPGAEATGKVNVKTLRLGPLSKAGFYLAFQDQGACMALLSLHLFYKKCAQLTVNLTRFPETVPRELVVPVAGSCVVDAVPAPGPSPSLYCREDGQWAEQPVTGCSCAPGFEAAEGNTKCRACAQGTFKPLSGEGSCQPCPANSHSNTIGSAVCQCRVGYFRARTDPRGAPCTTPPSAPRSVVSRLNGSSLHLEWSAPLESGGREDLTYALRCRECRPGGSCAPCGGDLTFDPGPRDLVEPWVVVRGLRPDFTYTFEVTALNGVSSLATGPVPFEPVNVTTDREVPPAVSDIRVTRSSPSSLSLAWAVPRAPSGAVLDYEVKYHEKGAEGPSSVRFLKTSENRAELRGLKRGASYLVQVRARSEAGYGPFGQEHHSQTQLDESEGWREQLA
Description: Peptides that bind to the same receptor region as the ephrins would be expected to inhibit Eph receptor-ephrin association, if they interact with sufficient affinity. A number of synthetic peptides were tested for their ability to inhibit binding of alkaline phosphatase-tagged ephrin-B2 (ephrin-B2-AP) to EphB receptors (FIG. 3). Most of the peptides were synthesized with a biotin tag and immobilized on streptavidin plates to verify their ability to capture the EphB ectodomains used for their isolation.
Ephrin-B2 AP binding to the indicated immobilized EphB receptor ectodomains was measured in the presence of the indicated peptides and detected by measuring alkaline phosphatase activity. […]. […] Wells coated with the different EphB ectodomains were incubated with ephrin-B2 AP and 50 μM of the indicated peptides. Ephrin-B2 AP binding in the presence of peptide was normalized to binding in the absence of peptide. All peptides were biotinylated except for FSPQ and EWYM. […] Therefore, IPWT was not used for further experiments. The EWYM, TWO, and FSPQ peptides were not synthesized with a biotin tag and therefore were tested directly for inhibition of ephrin-B2 binding. The EWLS, SNEW, and TNYL peptides were selective because they antagonized ephrin binding to only one EphB receptor (FIGS. 3B, D, and F).
The GP motif aligns with the GP motif of TNYL and the RAW motif aligns precisely next to the last amino acid of TNYL. […] For competition assays between peptides and ephrin-B2 alkaline phosphatase fusion protein (ephrin-B2 AP), the concentration of ephrin-B2 AP used was adjusted to obtain similar signals with different EphB receptors (0.135-1.45 OD min^−1ml^−1). Ephrin-B2 AP was co-incubated for 1 hr with different peptide concentrations in Ni-NTA wells coated with 1 μg/ml Eph receptor Fc. After several washes, the amount of ephrin-B2-AP bound was quantified using p-nitrophenylphosphate as a substrate. Alkaline phosphatase activity from wells without EphB Fc was subtracted as background. […] […]. In these experiments, the two peptides are not biotinylated. […] Ephrin-B2-AP binding in the presence of peptide was normalized to binding in the absence of peptide in (A) and (B). […] Endogenous EphB4 was immunoprecipitated from MCF7 breast cancer cells after stimulation with ephrin-B2 Fc, or Fc as a control, and probed by immunoblotting with anti-phosphotyrosine antibodies (PTyr). […] The filters were reprobed with EphB4 antibodies to confirm equal amounts of immunoprecipitated receptor.

Eph receptor Fc proteins = assay: Immobilized biotinylated peptides capturing Eph receptor Fc proteins on streptavidin plates; format: binding; details: for Eph receptor binding selectivity of immobilized biotinylated peptide: A- and B-class Eph receptor Fc proteins
Description: To measure the specificity of peptide binding to Eph receptors, biotinylated peptides were immobilized on streptavidin-coated plates at 10 μM (Pierce Biotechnology, Rockford, Ill.) and incubated for 1 hr with different Eph ectodomain Fc fusion proteins at 2.5 μg/ml in binding buffer. Bound receptor was detected using an anti-Fc antibody coupled to alkaline phosphatase (Promega) with p-nitrophenylphosphate as substrate (Pierce). The background that was subtracted from the measurements was determined by omitting the Eph ectodomain.
Biotinylated peptides were immobilized on streptavidin-coated plates and used to capture Eph receptor Fc proteins. Bound receptor was detected using anti-Fc antibody coupled to alkaline phosphatase and was normalized to the value in the well with highest receptor binding.

EphB receptors = assay: Ephrin-B2 AP binding to different EphB ectodomains in presence of peptide (selectivity); details: 10 μM peptide
Description: Ephrin-B2 AP binding to the indicated immobilized EphB receptor ectodomains was measured in the presence of the indicated peptides and detected by measuring alkaline phosphatase activity. […] Wells coated with the different EphB ectodomains were incubated with ephrin-B2 AP and 50 μM of the indicated peptides. Ephrin-B2 AP binding in the presence of peptide was normalized to binding in the absence of peptide. All peptides were biotinylated except for FSPQ and EWYM. […] The EWYM, TWO, and FSPQ peptides were not synthesized with a biotin tag and therefore were tested directly for inhibition of ephrin-B2 binding.
Ephrin-B2 AP was co-incubated for 1 hr with different peptide concentrations in Ni-NTA wells coated with 1 μg/ml Eph receptor Fc. After several washes, the amount of ephrin-B2-AP bound was quantified using p-nitrophenylphosphate as a substrate. Alkaline phosphatase activity from wells without EphB Fc was subtracted as background. […] In these experiments, the two peptides are not biotinylated. […] Ephrin-B2-AP binding in the presence of peptide was normalized to binding in the absence of peptide in (A) and (B).

EphB4 [2] = target: T2, EphB4 (Homo sapiens, UniProt P54760); assay: Ephrin-B2 Fc-induced EphB4 tyrosine phosphorylation in breast cancer cells; format: cell-based; details: MCF7 cells
T2 construct: MCF-7 human breast cancer cells, which endogenously express EphB4; endogenous in cells; host or cells: MCF7
T2 sequence (P54760 16-987): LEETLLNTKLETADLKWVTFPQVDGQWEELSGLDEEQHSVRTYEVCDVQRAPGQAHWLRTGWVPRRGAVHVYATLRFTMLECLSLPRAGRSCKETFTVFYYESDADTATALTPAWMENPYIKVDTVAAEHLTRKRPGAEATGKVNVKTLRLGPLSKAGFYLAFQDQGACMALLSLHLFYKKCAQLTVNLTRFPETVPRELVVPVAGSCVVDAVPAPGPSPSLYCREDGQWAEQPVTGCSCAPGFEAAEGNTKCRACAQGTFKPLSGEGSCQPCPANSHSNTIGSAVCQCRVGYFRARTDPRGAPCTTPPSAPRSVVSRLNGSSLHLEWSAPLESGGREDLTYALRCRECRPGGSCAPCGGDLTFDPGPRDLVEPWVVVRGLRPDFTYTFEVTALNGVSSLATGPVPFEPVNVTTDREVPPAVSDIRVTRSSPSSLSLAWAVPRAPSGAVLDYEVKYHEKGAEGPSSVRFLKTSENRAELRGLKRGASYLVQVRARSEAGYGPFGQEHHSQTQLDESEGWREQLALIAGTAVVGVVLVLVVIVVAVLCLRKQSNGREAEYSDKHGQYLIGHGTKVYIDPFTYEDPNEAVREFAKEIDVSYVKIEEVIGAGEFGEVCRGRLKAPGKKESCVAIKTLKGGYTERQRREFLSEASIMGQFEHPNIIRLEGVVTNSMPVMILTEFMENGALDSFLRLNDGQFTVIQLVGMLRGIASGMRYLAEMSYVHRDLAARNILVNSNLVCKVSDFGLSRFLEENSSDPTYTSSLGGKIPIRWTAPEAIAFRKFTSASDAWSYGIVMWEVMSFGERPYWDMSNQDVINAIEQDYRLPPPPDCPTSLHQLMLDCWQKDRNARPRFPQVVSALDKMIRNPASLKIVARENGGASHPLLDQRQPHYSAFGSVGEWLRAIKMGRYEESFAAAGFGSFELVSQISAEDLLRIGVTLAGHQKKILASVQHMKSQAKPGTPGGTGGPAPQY
Description: Preincubation of COS cells with the SNEW peptide in a concentration-dependent manner blocked the ability of ephrin-B1 Fc to induce tyrosine phosphorylation, and therefore activation, of endogenous EphB2 (FIG. 4A). EphB2 was immunoprecipitated from COS cells after stimulation with ephrin-B1 Fc, or Fc as a control, in the presence of the indicated concentrations of SNEW peptide and control RTVA peptide. For EphB2 immunoprecipitations, COS cells were serum-starved in DME high glucose for 3 hrs prior to stimulation with 1 μg/ml ephrin-B1 Fc or Fc protein in the presence or absence of EphB2-binding peptides or a control peptide. […] After ephrin stimulation, the cells were lysed in modified RIPA buffer (150 mM NaCl, 1 mM EDTA, 1% Triton X-100, 1% Na deoxycholate, 0.1% SDS, 20 mM Tris pH 8.0) with protease inhibitors and 1 mM sodium orthovanadate. Cell lysates were used for immunoprecipitation with either 5 μg EphB2 antibodies or 10 μg EphB4 antibodies. […]
The GP motif aligns with the GP motif of TNYL and the RAW motif aligns precisely next to the last amino acid of TNYL. […] After several washes, the amount of ephrin-B2-AP bound was quantified using p-nitrophenylphosphate as a substrate. […]

EphB4 [3] = target: T2, EphB4; assay: Peptide pull-down of EphB4 from MCF7 or transfected 293T cells; format: binding
Description: The ability of the peptides to bind in a stable manner, which is important for both targeting and competitive inhibition, was tested in pull-down experiments. For peptide pull-down experiments, cells in 60 cm plates at 70% confluency or adult mouse brain tissue were solubilized in pull-down buffer (50 mM HEPES pH 7.5, 150 mM NaCl, 10% glycerol, 1% Triton-X100, 5 mM KCl and 1 mM EDTA). Three μg of biotinylated peptide were incubated for 45-90 min with 5 μl streptavidin agarose beads (Sigma), unbound peptide was washed away, and the beads were incubated with the cell lysates for 45-90 min. Proteins bound to the beads were separated by SDS-polyacrylamide gel electrophoresis and probed by immunoblotting with EphB1, EphB2, or EphB4 antibodies. The EphB1 antibody (Santa Cruz) was detected with a secondary anti-goat IgG peroxidase-conjugated antibody (BioRad Laboratories). The EphB2 and EphB4 antibodies were affinity-purified polyclonal antibodies to GST fusion proteins containing approximately 100 amino acids from the carboxy-terminal tails of the EphB2 or EphB4 receptors (Noren, N. K. et al. 2004 PNAS USA 101:5583-5588; Holash, J. A. & Pasquale, E. B. 1995 Devel Biol 172:683-693) and were detected with a secondary anti-rabbit IgG peroxidase-conjugated antibody (Amersham Biosciences).
Endogenous EphB receptors were isolated from lysates of mouse brain or cultured cells using the EWLS, SNEW, and TNYL peptides immobilized on streptavidin beads (FIGS. 5B, F, G and H). […] RTVA was used as a control peptide for the EphB4 pull downs. The NPVI peptide could isolate EphB4 from transfected cells but not endogenous EphB4 from MCF7 cells, which is present at lower levels (FIGS. 5B, F, G and H). […] EphB receptors were not detected bound to the beads coated with the other peptides.

[4] = Solubility in aqueous buffers; format: physicochemical
Text: To determine whether different phage clones target overlapping Eph receptor binding sites, the EWLS EphB1-binding peptide and the TNYL EphB4-binding peptide were chemically synthesized. […] Peptides were synthesized using Fmoc (N-(9-fluorenyl)methoxycarbonyl) chemistry and purified by high pressure liquid chromatography. Biotinylated peptides were synthesized with a carboxy-terminal GSGSK linker with biotin attached to the lysine side chain or with a carboxy-terminal GSGS sequence linked to a carboxy-terminal N-biotinyl-N′-Fmoc-ethylenediamine (Novabiochem). Matrix-assisted laser desorption ionization-time of flight mass spectrometry was used to verify proper peptide synthesis, and purity. Stock solutions of the peptides were dissolved in phosphate buffered saline (PBS, Irvine Scientific) and the pH was verified to be ˜6.5. […] Peptide concentrations were calculated based on (O)280.

[5] = Peptide IC50: concentration of peptide required to inhibit ephrin-B2 AP binding by 50%, biotinylated synthetic peptides except EWYM and FSPQ

- Eph receptor binding selectivity of immobilized biotinylated peptide (Eph receptor Fc proteins): less specific
Compound: SEQ ID NO 14: 12-mer from EphB2 panning; printed SHW[image]ISPYSLLS (SHWPISPYSLLS)

- Capture of the EphB ectodomain used for isolation by immobilized biotinylated peptide (Eph receptor Fc proteins; EphB4): failed to bind
Compound: SEQ ID NO 34: 12-mer from EphB4 panning; printed IPWTQ[image]MAMSPM (IPWTQHMAMSPM)

- Eph receptor binding selectivity of immobilized biotinylated peptide (Eph receptor Fc proteins): less specific
Compound: SEQ ID NO 10: 12-mer from EphB2 panning; printed DHWRI[image]PFSLSS (DHWRILPFSLSS)

Second part, the compound before the results:

Compound: DHNHNLYNPWRL [SEQ ID NO 21]
- IC50 (EphB4 [1]; [5]): ~200 µM

Compound: TNYLFSPNGPIARAW [TNYL-RAW]
- IC50 (EphB4 [1]; non-biotinylated peptide or dimeric ephrin-B2 Fc, read-out: IC50 for inhibition of ephrin-B2 AP binding to EphB4): ~0.015 µM
- Selectivity of antagonism of ephrin-B2 AP binding across EphB ectodomains (EphB receptors): inhibits binding of ephrin-B2 AP to the immobilized EphB4 ectodomain but not other EphB ectodomains
- Inhibition of basal EphB4 tyrosine phosphorylation (EphB4 [2]): inhibited
- Inhibition of ephrin-B2 Fc-induced EphB4 tyrosine phosphorylation (EphB4 [2]; concentration-dependent): inhibited in a concentration-dependent manner EphB4 tyrosine phosphorylation

Compound: CC[C@H](C)[C@H](NC(=O)[C@@H]1CCCN1C(=O)CNC(=O)[C@H](CC(N)=O)NC(=O)[C@@H]1CCCN1C(=O)[C@H](CO)NC(=O)[C@H](Cc1ccccc1)NC(=O)[C@H](CC(C)C)NC(=O)[C@H](Cc1ccc(O)cc1)NC(=O)[C@H](CC(N)=O)NC(=O)[C@@H](N)[C@@H](C)O)C(=O)N[C@@H](C)C(=O)O [SEQ ID NO 24]
- IC50 (EphB4 [1]; [5]): ~50 µM
- IC50 (EphB4 [1]; non-biotinylated peptide, read-out: IC50 for inhibition of ephrin-B2 AP binding): 150 µM and ~150 µM

Compound: NPVIGPIQRAWT [SEQ ID NO 27]
- Pull-down of endogenous EphB4 (EphB4 [3]; MCF7 breast cancer cell line): did not detectably bind
- Pull-down of transfected EphB4 (EphB4 [3]; transfected 293T human embryonic kidney cells): bound the more highly expressed EphB4

Compound: CC[C@H](C)[C@H](NC(=O)[C@H](C)NC(=O)[C@H](Cc1ccccc1)NC(=O)[C@@H]1CCCN1C(=O)[C@H](CCC(=O)O)NC(=O)[C@@H](NC(=O)[C@@H](NC(=O)[C@H](Cc1c[nH]c2ccccc12)NC(=O)[C@H](Cc1c[nH]cn1)NC(=O)[C@@H](N)Cc1c[nH]c2ccccc12)[C@@H](C)O)[C@@H](C)CC)C(=O)N[C@H](C(=O)N[C@@H](CO)C(=O)O)[C@@H](C)O [SEQ ID NO 8]
- Solubility in aqueous buffers [4]: low solubility

From US7999069B2, “EphB receptor-binding peptides” (Sanford-Burnham Medical Research Institute, priority 2005, dated 2011)
